Measured values taken from patent US20210077479A1, “FORMULATIONS OF PIMAVANSERIN” (ACADIA Pharmaceuticals Inc., priority 2017, published 2021).

Assays:
[1] = test system: DOI ((±)-2,5-dimethoxy-4-iodoamphetamine, a serotonin agonist) induced head twitches; conditions: rat, oral doses of 3 and 10 mg/kg; cited from earlier work
[2] = Laser light scattering particle size analysis (Malvern Mastersizer 2000); type: physicochemical; conditions: FIG. 4 / FIG. 5
Description: The small quantity of water, its application using appropriate water atomization and/or water application rate are important reasons for the improved properties of pimavanserin. […] The actual amount of water to be sprayed at the granulation of pimavanserin may vary from batch to batch (depending on surrounding factors such as humidity, temperature, exact properties of the API batch, etc) but is still consider to be a small amount, e.g. 3-10% w/w based on the dry ingredients. The amount of water and the granulation process disclosed herein is controlled by controlling the impeller energy to achieve the targeted impeller speed. The appropriate impeller speed ensures sufficient mixing and controls the growth of granules. The specific small amount of water needed for each batch is controlled by the power consumption (amperage) of the granulator, i.e., if the amperage is […], additional amounts of water could be sprayed to the granulate in order to obtain pimavanserin having the properties desired in order to pharmaceutically manufacture capsules comprising 5-34 mg pimavanserin. […] The properties are achieved via a manufacturing process that includes granulation, using a suitable granulator, e.g. a high shear granulator, simultaneously spraying the adequate amount of water while mixing, followed by screening, and blending appropriate quantities of excipients. […]

[3] = Bulk density according to USP <616>, method 1; type: physicochemical
Description: (§1) Can's Index compares the difference between the bulk density and tapped density of a substance to determine its compressibility. The bulk density and the Carr's Index may be determined in accordance with USP<616> (method for performing Bulk and Tapped Densities, method 1) and USP<1174> (definition of powder flow) respectively.
The bulk density of the blended composition is >0.4 g/ml, such as 0.4-0.6 g/ml, such as about 0.5 g/ml determined according to USP <616>, method 1. In some embodiments the bulk density of the composition is >0.4 g/ml, such as about 0.5 g/ml, such as 0.51 g/ml, such as 0.508 g/ml.
The bulk density of pimavanserin granulation is >0.4 g/ml, such as 0.4-0.6 g/ml, such as about 0.5 g/ml, determined according to USP <616>, method 1. In some embodiments the bulk density of the pimavanserin granulation is >0.4 g/ml, such as about 0.5 g/ml, such as 0.51 g/ml, such as 0.508 g/ml.

[4] = Carr's Index (Carr's Compressibility Index), USP <616>/<1174>; type: physicochemical
Procedure: as §1
Table 1 visualizes that filling of a capsule, in particular a capsule of size 3 or 4 (capsule volumes of 0.30 and 0.21 ml respectively, approximately […] and 85 mg respectively at a bulk density of 0.5 g/ml). As evident from Table 1, native pimavanserin (API) would be challenging for a size 3 capsule and not possible for a capsule of size 4 without improving the bulk density (as comparison 85 mg of pimavanserin granulation would require about 0.17 ml compared to 0.29 nil for the native API) and flowability (Carr index is frequently used in pharmaceutical manufacturing as an indication of the flowability of a powder, e.g. 2016 U.S. Pharmacopoeia-National Formulary [USP 35 NF 30]).

Row | Compound | activity against DOI induced head twitches [1] | particle size distribution D90 [2] | Bulk density according to USP <616> [3] | volume required for 85 mg ([3]; 85 mg of powder, from bulk density) | Carr's Index [4]
1 | CC(C)COc1ccc(CNC(=O)N(Cc2ccc(F)cc2)C2CCN(C)CC2)cc1 [Pimavanserin, N-(1-methylpiperidin-4-yl)-N-(4-fluorophenylmethyl)-N′-(4-(2-methylpropyloxy)phenylmethyl)carbamide] | effective |  |  |  | 
2 | pimavanserin tartrate [Native API] |  | about 30 μm | 0.294 (n = 2) g/ml | 0.29 mL | 36 (n = 2)
